Assay results reported in ChEMBL document CHEMBL3098005, “Structure activity relationships of fused bicyclic and urea derivatives of spirocyclic compounds as potent CCR1 antagonists” (Bioorg Med Chem Lett, 2014).

What was measured:
[1] = target: T1, C-C chemokine receptor type 1 (Homo sapiens, UniProt P32246); assay: Displacement of [125I]MIP-1alpha from human recombinant CCR1 expressed in HEK293 cell membranes after 1.5 hrs by microbeta counting analysis
T1 sequence (P32246 whole entry): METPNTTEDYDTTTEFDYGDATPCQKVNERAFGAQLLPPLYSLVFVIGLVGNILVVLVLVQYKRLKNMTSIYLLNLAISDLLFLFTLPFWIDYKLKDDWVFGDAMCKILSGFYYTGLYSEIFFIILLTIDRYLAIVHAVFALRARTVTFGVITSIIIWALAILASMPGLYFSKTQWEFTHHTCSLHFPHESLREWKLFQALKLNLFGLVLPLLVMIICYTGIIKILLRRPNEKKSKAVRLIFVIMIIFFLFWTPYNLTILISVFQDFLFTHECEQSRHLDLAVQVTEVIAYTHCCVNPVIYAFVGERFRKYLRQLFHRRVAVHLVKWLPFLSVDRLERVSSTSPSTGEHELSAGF

[2] = target: T2, C-C chemokine receptor type 1 (Rattus norvegicus, UniProt A6I4C9); assay: Displacement of [125I]MIP-1alpha from rat CCR1
T2 sequence (A6I4C9 whole entry): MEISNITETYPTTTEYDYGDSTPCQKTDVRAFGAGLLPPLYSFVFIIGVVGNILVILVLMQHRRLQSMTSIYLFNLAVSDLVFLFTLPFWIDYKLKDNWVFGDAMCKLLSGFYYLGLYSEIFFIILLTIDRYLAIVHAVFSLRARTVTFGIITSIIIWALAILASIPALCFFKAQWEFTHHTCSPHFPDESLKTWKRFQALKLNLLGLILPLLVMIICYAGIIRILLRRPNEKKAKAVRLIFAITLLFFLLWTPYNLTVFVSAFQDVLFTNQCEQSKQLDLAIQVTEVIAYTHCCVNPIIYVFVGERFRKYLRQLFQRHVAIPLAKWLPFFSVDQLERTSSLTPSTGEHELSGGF

[3] = Metabolic stability in human liver microsomes; type: ADME; conditions: read-out: Stability
[4] = tested on: Hepatocyte; assay: Metabolic stability in human hepatocytes measured per 10^6 cells; type: ADME, cell-based
[5] = target: Voltage-gated inwardly rectifying potassium channel KCNH2 (Homo sapiens, UniProt Q12809); assay: Inhibition of human ERG expressed in HEK cells after 3 hrs by ion flux electrophysiology
Voltage-gated inwardly rectifying potassium channel KCNH2, sequence (Q12809 whole entry): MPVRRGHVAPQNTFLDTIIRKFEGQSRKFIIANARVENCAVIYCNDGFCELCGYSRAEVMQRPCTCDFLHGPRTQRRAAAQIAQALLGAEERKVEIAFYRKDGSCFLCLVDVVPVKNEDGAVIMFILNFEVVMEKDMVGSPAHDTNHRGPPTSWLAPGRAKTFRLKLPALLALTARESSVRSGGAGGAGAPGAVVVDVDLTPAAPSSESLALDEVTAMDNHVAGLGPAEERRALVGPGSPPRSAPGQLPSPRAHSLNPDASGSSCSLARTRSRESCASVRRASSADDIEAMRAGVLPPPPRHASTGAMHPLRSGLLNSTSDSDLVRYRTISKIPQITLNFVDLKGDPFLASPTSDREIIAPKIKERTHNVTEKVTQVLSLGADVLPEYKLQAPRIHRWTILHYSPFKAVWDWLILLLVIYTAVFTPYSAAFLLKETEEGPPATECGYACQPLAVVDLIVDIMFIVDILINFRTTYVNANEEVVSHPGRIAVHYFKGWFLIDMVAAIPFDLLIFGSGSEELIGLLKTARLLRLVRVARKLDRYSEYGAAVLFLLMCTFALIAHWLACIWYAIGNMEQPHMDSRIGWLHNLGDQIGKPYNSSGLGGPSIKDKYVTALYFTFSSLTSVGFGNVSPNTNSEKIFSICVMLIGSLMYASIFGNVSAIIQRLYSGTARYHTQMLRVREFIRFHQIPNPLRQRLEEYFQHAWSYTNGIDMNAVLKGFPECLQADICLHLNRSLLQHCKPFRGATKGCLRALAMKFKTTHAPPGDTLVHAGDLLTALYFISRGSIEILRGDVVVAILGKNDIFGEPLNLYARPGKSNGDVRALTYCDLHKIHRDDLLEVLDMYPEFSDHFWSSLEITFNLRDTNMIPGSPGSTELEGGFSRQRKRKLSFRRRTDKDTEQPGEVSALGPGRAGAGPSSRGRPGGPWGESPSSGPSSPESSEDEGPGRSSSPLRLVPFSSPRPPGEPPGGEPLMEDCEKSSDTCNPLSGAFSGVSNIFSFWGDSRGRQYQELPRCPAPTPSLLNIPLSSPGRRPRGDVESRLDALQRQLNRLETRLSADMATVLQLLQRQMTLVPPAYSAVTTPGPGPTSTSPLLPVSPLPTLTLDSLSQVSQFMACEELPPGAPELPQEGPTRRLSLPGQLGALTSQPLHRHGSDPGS

[6] = Permeability across human Caco2 cells; type: ADME, cell-based; conditions: Caco-2, read-out: permeability

Row | Compound | IC50 [1] | IC50 [2] | microsomal CLint [3] | Stability [4] | IC50 ([2]; read-out: IC50) | Papp [6] | IC50 [5]
1 | O=c1ccc2cccc(OC[C@@H](O)CN3CCC4(CC3)Cc3cc(Cl)ccc3O4)c2[nH]1 | 37 nM | Not Active | 12.5 µL/min/mg | Unstable | – | – | –
2 | O=c1[nH]c(=O)c2cccc(OC[C@@H](O)CN3CCC4(CC3)Cc3cc(Cl)ccc3O4)c2[nH]1 | 560 nM | – | – | – | > 6000 nM | – | –
3 | O=C1CCc2cccc(OC[C@@H](O)CN3CCC4(CC3)Cc3cc(Cl)ccc3O4)c2N1 | 32 nM | Not Active | 65 µL/min/mg | Unstable | – | 16 ×10⁻⁶ cm/s | 500 nM
4 | Cc1cc2c(OC[C@@H](O)CN3CCC4(CC3)Cc3cc(Cl)ccc3O4)cccc2o1 | 160 nM | Not Active | 15 µL/min/mg | – | – | – | –
5 | CNC(=O)Nc1ccc(OC)cc1OC[C@@H](O)CN1CCC2(CC1)Cc1cc(F)ccc1O2 | 13 nM | – | 87.9 µL/min/mg | – | 1780 nM | – | –
6 | Cc1nc2c(OC[C@@H](O)CN3CCC4(CC3)Cc3cc(Cl)ccc3O4)cccc2s1 | 1300 nM | Not Active | – | – | – | – | –
7 | N[C@H](COc1cccc2ccc(=O)[nH]c12)CN1CCC2(CC1)Cc1cc(F)ccc1O2 | 560 nM | Not Active | < 10 µL/min/mg | – | – | – | 1200 nM
8 | N[C@H](COc1cccc2c1NC(=O)CO2)CN1CCC2(CC1)Cc1cc(F)ccc1O2 | 79 nM | Not Active | < 10 µL/min/mg | – | – | – | –
9 | Nc1nc2c(OC[C@@H](O)CN3CCC4(CC3)Cc3cc(Cl)ccc3O4)cccc2s1 | 1300 nM | Not Active | – | – | – | – | –
10 | O=C1COc2cccc(OC[C@@H](O)CN3CCC4(CC3)Cc3cc(Cl)ccc3O4)c2N1 | 7.1 nM | – | 33.7 µL/min/mg | 7.8 µL/min | 1260 nM | 11 ×10⁻⁶ cm/s | 600 nM

These reach a lower IC50 [1]. Values come first.

Row | IC50 [1] | IC50 [2] | microsomal CLint [3] | Stability [4] | IC50 ([2]; read-out: IC50) | Papp [6] | Compound | IC50 [5]
11 | 2.2 nM | – | 133 µL/min/mg | – | 90 nM | – | COc1ccc(NC(=O)NC2CC2)c(OC[C@@H](O)CN2CCC3(CC2)Cc2cc(F)ccc2O3)c1 | –
12 | 3.2 nM | – | < 10 µL/min/mg | < 3.8 µL/min | 1580 nM | 0.5 ×10⁻⁶ cm/s | NC(=O)Nc1ccc(O)cc1OC[C@@H](O)CN1CCC2(CC1)Cc1cc(Cl)ccc1O2 | > 8900 nM
13 | 1.3 nM | – | < 10 µL/min/mg | 5.4 µL/min | 1760 nM | 9 ×10⁻⁶ cm/s | CNC(=O)Nc1ccc(O)cc1OC[C@@H](O)CN1CCC2(CC1)Cc1cc(Cl)ccc1O2 | 4600 nM
14 | 5.6 nM | – | 17 µL/min/mg | 5.7 µL/min | 1620 nM | 16 ×10⁻⁶ cm/s | NC(=O)Nc1ccc(F)cc1OC[C@@H](O)CN1CCC2(CC1)Cc1cc(Cl)ccc1O2 | –
15 | 6.7 nM | – | 21.5 µL/min/mg | < 3 µL/min | 2110 nM | 14 ×10⁻⁶ cm/s | NC(=O)Nc1ccccc1OC[C@@H](O)CN1CCC2(CC1)Cc1cc(Cl)ccc1O2 | 400 nM
16 | 0.89 nM | – | < 10 µL/min/mg | 6.4 µL/min | 50 nM | 2.67 ×10⁻⁶ cm/s | O=C(Nc1ccc(O)cc1OC[C@@H](O)CN1CCC2(CC1)Cc1cc(Cl)ccc1O2)NC1CC1 | –
17 | 3.2 nM | – | < 10 µL/min/mg | 10.7 µL/min | – | – | CNC(=O)Nc1ccc(O)cc1OC[C@@H](O)CN1CCC2(CC1)Cc1cc(F)ccc1O2 | 13100 nM
18 | 4.5 nM | – | 71.2 µL/min/mg | – | 447 nM | – | CNC(=O)Nc1ccc(OC)cc1OC[C@@H](O)CN1CCC2(CC1)Cc1cc(Cl)ccc1O2 | –
19 | 1.8 nM | – | 114 µL/min/mg | – | 50 nM | – | COc1ccc(NC(=O)NC2CC2)c(OC[C@@H](O)CN2CCC3(CC2)Cc2cc(Cl)ccc2O3)c1 | –
20 | 1.8 nM | – | < 11.4 µL/min/mg | 20.7 µL/min | 16 nM | – | O=C(Nc1cc(Cl)c(O)cc1OC[C@@H](O)CN1CCC2(CC1)Cc1cc(Cl)ccc1O2)NC1CC1 | 1000 nM
21 | 0.63 nM | – | 15.1 µL/min/mg | 5.3 µL/min | 101 nM | 0.93 ×10⁻⁶ cm/s | O=C(Nc1ccc(O)cc1OC[C@@H](O)CN1CCC2(CC1)Cc1cc(F)ccc1O2)NC1CC1 | 3800 nM
22 | 1.4 nM | – | > 200 µL/min/mg | – | – | 3.5 ×10⁻⁶ cm/s | O=C(Nc1ccccc1OC[C@@H](O)CN1CCC2(CC1)Cc1cc(Cl)ccc1O2)N1CCCC1 | –
